# Laboratory results reported in patent US9067974B2, “Polymyxin derivatives and uses thereof” (priority 2006, dated 2015).
# Read-outs that look alike come from different tables or passages of the source.
# Legend:
# [1] = test system: E. coli IH3080 (K1:O18); assay: Well diffusion growth inhibition on LB agar plates (direct antibacterial activity); format: cell-based, Escherichia coli
# Procedure, shortened: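 Growth inhibition of encapsulated E. coli IH3080 (K1:O18) was measured by well diffusion on LB agar plates. A suspension of about 10^8 cells/ml in 0.9% NaCl, made from an overnight LB agar culture, was spread over the plates and the excess removed. Once dry, five 2 mm wells were drilled per plate and test solutions added, with 0.9% NaCl as control. After 18 h at 37° C, inhibition zone diameters were measured and converted to surface areas in square mm.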
# [2] = test system: E. coli IH3080; assay: Sensitization to rifampin: well diffusion growth inhibition on LB plates containing rifampin; format: cell-based, Escherichia coli; conditions: 4 μg of compound
# [3] = test system: E. coli; conditions: Sakura et al. 2004; cited from earlier work
# [4] = test system: Ac. baumannii F263; assay: E-test MIC of antibiotics on Mueller-Hinton agar with or without NAB7061 (4 μg/ml); sensitization factor = MIC ratio absence/presence; format: cell-based; conditions: Acinetobacter baumannii, NAB 7061 0 μg/ml, A. baumannii F263
# Method: (§1) MICs were determined by using E-strips (Biodisk Ltd., Solna, Sweden) according to the manufacturer's instructions.
# (§2) The strains originated from ATCC (11 strains), CCUG (11 strains), and NCTC (The National Collection of Type Cultures, Colindale, U.K.; 2 strains). Eight strains (the F-strains) were purchased from Mobidiag Ltd., Helsinki, Finland. The source of E. coli IH3080 has been given in Example 2. Sensitization factor was defined as in Example 7.
# (§3) Sensitization factor was defined as in Example 7. NAB7061 sensitized both carbapenem-resistant strains (F263, F264) to both carbapenems by a factor ≧4.
# [5] = test system: Ac. baumannii ATCC19606; assay: as above; format: cell-based; conditions: Acinetobacter baumannii, NAB 7061 0 μg/ml, A. baumannii ATCC19606
# Method: as §1, §2, §3
# [6] = test system: Ac. baumannii F264; assay: as above; format: cell-based; conditions: Acinetobacter baumannii, NAB 7061 0 μg/ml, A. baumannii F264
# Method: as §1, §2, §3
# [7] = target: brush-border membrane (BBM) from the renal cortex; assay: Inhibition of [3H] gentamycin binding to brush-border membrane vesicles; set-up: species or system rats; conditions: 20 μM [3H] gentamycin; 60 min at 4° C.; rat renal cortex BBM vesicles
# Source text: The binding of the compounds according to this invention to isolated brush-border membrane (BBM) from the renal cortex can be measured indirectly by measuring their ability to inhibit the binding of radiolabelled gentamycin to BBM. Accordingly, the compounds according to this invention that have less affinity to BBM than for example polymyxin B inhibit the binding of radiolabelled gentamycin to a lesser degree than does polymyxin B.
# BBM was isolated from the renal cortex of male albino rats by using the Mg^2+/EGTA precipitation technique as described by Nagai et al. (2006). The binding of gentamycin was measured, according to the method described by Nagai et al. (2006) by incubating BBM vesicles (20 μl) in 10 mM HEPES (pH 7.5) with 100 mM mannitol in the presence of 20 μM [^3H] gentamycin (Amersham Biosciences Inc., Buckinghamshire, U.K.) with or without the compound to be tested or a positive control. After an incubation of 60 min at 4° C., 1 ml of ice-cold buffer described above was added, and the mixture was filtered through a Millipore filter (0.45 μm; HAWP). The filter was washed with the buffer and the radioactivity remaining in the filter was measured by using a liquid scintillation counter. The IC50 values were determined as in Nagai et al. (2006) using the Hill equation.
# [8] = Two-week intravenous toxicity study in young rats; format: in vivo
# Method: Toxicity in young rats (weighing approx. 150 g in the beginning of the study) was determined by administering doses (1, 2, 4, 8, 16, and 32 mg/kg per day) of NAB7061 as well as the control compound polymyxin B intravenously twice (2) a day for two weeks. A group of ten (10) rats was studied for each dosis regimen. Clinical observations were made daily, the body weight measured twice weekly, and the food consumption twice weekly. In the end of week 2, all animals were sacrificed.
# Histopathology of kidneys was performed for each animals and histopathology of all tissues was performed in three high-dose groups receiving NAB7061.
# [9] = test system: Pseudomonas aeruginosa ATCC 27853; assay: Well diffusion growth inhibition on LB agar plates (direct antibacterial activity); format: cell-based; conditions: Ps. aeruginosa ATCC 27853
# Procedure, shortened: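 Pseudomonas aeruginosa ATCC 27853 was tested for direct antibacterial susceptibility by agar well diffusion. A suspension of about 10^8 cells/ml in 0.9% NaCl was spread over LB agar and the excess removed. After drying, 2 mm wells were drilled and filled with compound dissolved in 0.9% NaCl, with NaCl alone as control. Plates were incubated 18 h at 37° C, and inhibition zone diameters were measured and converted to areas in square mm.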
# [10] = test system: Acinetobacter baumannii ATCC 19606; assay: as above; format: cell-based; conditions: A. baumannii ATCC 19606
# Procedure, shortened: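 Direct antibacterial activity against Acinetobacter baumannii ATCC 19606 was measured by agar well diffusion on LB plates. The plates were flooded with a suspension of approx. 10^8 cells/ml in 0.9% NaCl, and the excess was removed. Once the surface dried, five wells of 2 mm diameter were drilled per plate. The wells were filled with test compound dissolved in 0.9% NaCl, with plain 0.9% NaCl as control. After 18 h at 37° C., inhibition zone diameters were measured and converted to growth inhibition areas in square mm.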
compound,measurement,setting,value
"octanoyl polymyxin B heptapeptide [Octanoyl PMBH, reference compound]",Antibacterial activity (growth inhibition area around a well),[1]; 4 μg of compound per well,0 square millimeters
same,Antibacterial activity (growth inhibition area around a well),[1]; 10 μg of compound per well,0 square millimeters
same,Antibacterial activity in the presence of rifampin (growth inhibition area around a well),[2]; rifampin 0 μg/ml,0 square millimeters
same,Antibacterial activity in the presence of rifampin (growth inhibition area around a well),[2]; rifampin 0.1 μg/ml,0 square millimeters
same,Antibacterial activity in the presence of rifampin (growth inhibition area around a well),[2]; rifampin 1.0 μg/ml,38 square millimeters
same,Concentration needed to inhibit the growth of bacteria,[3],128 µg/mL
"C[C@@H](O)[C@H]1C(=O)N2C(C(=O)O)=C(S[C@@H]3CN[C@H](C(=O)N(C)C)C3)[C@H](C)[C@H]12 [meropenem, reference compound]",MIC,[4]; read-out: MIC of meropenem,> 32 µg/mL
same,MIC,[5]; read-out: MIC of meropenem,1.5 µg/mL
same,MIC,[6]; read-out: MIC of meropenem,32 µg/mL
"MO(H)A-XTX-cy[XXFLXXT], SEQ ID NO:1; commercially available polymyxin B is a mixture [reference compound]",Antibacterial activity (growth inhibition area around a well),[1]; 4 μg of compound per well,79 square millimeters
same,Antibacterial activity (growth inhibition area around a well),[1]; 10 μg of compound per well,133 square millimeters
same,Antibacterial activity in the presence of rifampin (growth inhibition area around a well),[2]; rifampin 0 μg/ml,79 square millimeters
same,Antibacterial activity in the presence of rifampin (growth inhibition area around a well),[2]; rifampin 0.1 μg/ml,95 square millimeters
same,Antibacterial activity in the presence of rifampin (growth inhibition area around a well),[2]; rifampin 1.0 μg/ml,104 square millimeters
same,IC50,[7],39.3 µM
same,Rise of blood urea nitrogen (BUN) versus control or low dose group,"[8]; rat, in vivo, 16 mg/kg/day",15%
same,Lowest dose that negatively influenced the body weight gain,"[8]; rat, in vivo, iv",1 mg/kg per day
same,Mortality,"[8]; rats, 32 mg/kg per day intravenously for two weeks",100%
same,Antibacterial activity (growth inhibition area around a well),[9]; 4 μg per well,95 square millimeters
same,Antibacterial activity (growth inhibition area around a well),[9]; 10 μg per well,133 square millimeters
same,Antibacterial activity (growth inhibition area around a well),[10]; 4 μg per well,113 square millimeters
same,Antibacterial activity (growth inhibition area around a well),[10]; 10 μg per well,154 square millimeters
"C[C@@H](O)[C@H]1C(=O)N2C(C(=O)O)=C(SCCN=CN)C[C@H]12 [imipenem, reference compound]",MIC,[4]; read-out: MIC of imipenem,> 32 µg/mL
same,MIC,[5]; read-out: MIC of imipenem,0.38 µg/mL
same,MIC,[6]; read-out: MIC of imipenem,24 µg/mL
